Measured values reported in ChEMBL document CHEMBL4837206, “Synthesis and biological evaluation of novel isoxazole-piperazine hybrids as potential anti-cancer agents with inhibitory effect on liver cancer stem cells” (Eur J Med Chem, 2021).
Activity calls are given as the source filed them. The rule behind the calls is not given here.

What was measured:
[1] = test system: MCF7; assay: Antiproliferative activity against human MCF7 cells assessed as reduction in cell viability measured after 72 hrs by SRB assay; assay type: functional, cell-based; conditions: MCF7, 72 h
[2] = test system: Mahlavu; assay: Antiproliferative activity against human Mahlavu cells assessed as reduction in cell viability measured after 72 hrs by SRB assay; assay type: functional, cell-based
[3] = test system: HepG2; assay: Antiproliferative activity against human HepG2 cells assessed as reduction in cell viability measured after 90 hrs by RT-CES analysis; assay type: functional, cell-based
[4] = test system: Mahlavu; assay: Antiproliferative activity against human Mahlavu cells assessed as reduction in cell viability measured after 90 hrs by RT-CES analysis; assay type: functional, cell-based
[5] = test system: SNU-475; assay: Antiproliferative activity against human SNU-475 cells assessed as reduction in cell viability measured after 40 to 130 hrs by RT-CES analysis; assay type: functional, cell-based; conditions: time 40-130 hrs
[6] = test system: HepG2; assay: Antiproliferative activity against human HepG2 cells assessed as reduction in cell viability measured for 180 hrs by RT-CES analysis; assay type: functional, cell-based; conditions: dose 2.5-10 µM
[7] = test system: Mahlavu; assay: Antiproliferative activity against human Mahlavu cells assessed as reduction in cell viability measured for 180 hrs by RT-CES analysis; assay type: functional, cell-based; conditions: dose 2.5-10 µM
[8] = test system: Mahlavu; assay: Cell cycle arrest in human Mahlavu cells assessed as increase in accumulation of cells at G0/G1 phase at 5 uM measured after 48 hrs by propidium iodide staining based flow cytometric analysis; assay type: functional
[9] = test system: Mahlavu; assay: Cell cycle arrest in human Mahlavu cells assessed as increase in accumulation of cells at subG1 phase at 5 uM measured after 48 hrs by propidium iodide staining based flow cytometric analysis; assay type: functional
[10] = test system: SNU-475; assay: Cell cycle arrest in human SNU-475 cells assessed as increase in accumulation of cells at S phase at 5 uM measured after 48 hrs by propidium iodide staining based flow cytometric analysis; assay type: functional
[11] = test system: SNU-475; assay: Cell cycle arrest in human SNU-475 cells assessed as increase in accumulation of cells at G2/M phase at 5 uM measured after 48 hrs by propidium iodide staining based flow cytometric analysis; assay type: functional
[12] = test system: Huh-7; assay: Cell cycle arrest in human Huh-7 cells assessed as increase in accumulation of cells at G2/M phase at 5 uM measured after 48 hrs by propidium iodide staining based flow cytometric analysis; assay type: functional
[13] = test system: HepG2; assay: Cell cycle arrest in human HepG2 cells assessed as increase in accumulation of cells at G0/G1 phase at 5 uM measured after 48 hrs by propidium iodide staining based flow cytometric analysis; assay type: functional
[14] = test system: Mahlavu; assay: Induction of apoptosis in human Mahlavu cells at 5 uM measured after 72 hrs by Annexin V-FITC/propidium iodide staining based flow cytometric analysis; assay type: functional, cell-based
[15] = test system: SNU-475; assay: Induction of apoptosis in human SNU-475 cells at 5 uM measured after 72 hrs by Annexin V-FITC/propidium iodide staining based flow cytometric analysis; assay type: functional, cell-based
[16] = test system: HepG2; assay: Induction of apoptosis in human HepG2 cells at 5 uM measured after 72 hrs by Annexin V-FITC/propidium iodide staining based flow cytometric analysis; assay type: functional, cell-based
[17] = test system: Mahlavu; assay: Induction of apoptosis in human Mahlavu cells assessed as chromatin condensation measured after 48 hrs by Hoechst33258 staining based inverted fluorescent microscopic method; assay type: functional, cell-based
[18] = test system: Mahlavu; assay: Activation of p53 harboring G249T mutant in human Mahlavu cells assessed as upregulation of p53 acetylation at Lys382 residue at 5 uM incubated for 72 hrs by western blot analysis; assay type: cell-based; conditions: filed as activator
[19] = test system: SNU-475; assay: Activation of p53 harboring A239G/T275C/A288G mutant in human SNU-475 cells assessed as upregulation of p21 protein expression at 5 uM incubated for 72 hrs by western blot analysis; assay type: cell-based; conditions: filed as activator
[20] = test system: Mahlavu; assay: Activation of p53 harboring G249T mutant in human Mahlavu cells assessed as upregulation of p21 protein expression at 5 uM incubated for 72 hrs by western blot analysis; assay type: cell-based
[21] = molecular target: T1, Serine/threonine-protein kinase AKT (Homo sapiens) (UniProt P31751+Q9Y243+P31749); assay: Inhibition of Akt phosphorylation at Ser473 residue in human Huh-7 cells at 5 uM measured after 72 hrs by Western blot analysis; assay type: cell-based
[22] = molecular target: T1, Serine/threonine-protein kinase AKT (Homo sapiens); assay: Inhibition of Akt phosphorylation at Ser473 residue in human HepG2 cells at 5 uM measured after 72 hrs by Western blot analysis; assay type: cell-based
[23] = Inhibition of PI3K/Akt/mTOR signaling in human Mahlavu cells assessed as downregulation of c-Myc protein expression at 5 uM measured after 72 hrs by Western blot analysis; assay type: cell-based
[24] = test system: Huh-7; assay: Inhibition of cell stemness in human Huh-7 cells assessed as CD133+/EpCAM+ expression at 10 uM measured after 72 hrs by flow cytometry analysis (reference value: 29.92%); assay type: functional; design: scale not given: the % may be the effect or the level left
[25] = test system: Huh-7; assay: Inhibition of cell stemness in human Huh-7 cells assessed as decrease in NANOG mRNA level at 10 uM measured after 72 hrs by RT-qPCR analysis; assay type: functional, cell-based
[26] = test system: Huh-7; assay: Inhibition of cell stemness in human Huh-7 cells assessed as decrease in OCT4 mRNA level at 10 uM measured after 72 hrs by RT-qPCR analysis; assay type: functional, cell-based
[27] = test system: Mahlavu; assay: Inhibition of cell stemness in human Mahlavu cells assessed as decrease in NANOG level at 10 uM measured after 72 hrs by flow cytometry analysis; assay type: functional, cell-based
[28] = test system: Huh-7; assay: Inhibition of cell stemness in human Huh-7 cells assessed as decrease in NANOG level at 10 uM measured after 72 hrs by flow cytometry analysis; assay type: functional, cell-based
[29] = test system: Huh-7; assay: Inhibition of cell stemness in human Huh-7 cells assessed as reduction in size of tumor spheres at 10 uM incubated for 72 hrs followed by incubation in sphere formation medium for 7 days by microscopic analysis; assay type: functional, cell-based; conditions: time 10.0 day
[30] = test system: Huh-7; assay: Inhibition of cell stemness in human Huh-7 cells assessed as reduction in tumor spheres count at 10 uM incubated for 72 hrs followed by incubation in sphere formation medium for 7 days by microscopic analysis; assay type: functional, cell-based; conditions: time 10.0 day
[31] = test system: Mahlavu; assay: Induction of apoptosis in human Mahlavu cells assessed as apoptotic body formation measured after 48 hrs by Hoechst33258 staining based inverted fluorescent microscopic method; assay type: functional, cell-based
[32] = test system: Huh-7; assay: Induction of apoptosis in human Huh-7 cells assessed as apoptotic body formation measured after 48 hrs by Hoechst33258 staining based inverted fluorescent microscopic method; assay type: functional, cell-based
[33] = test system: Huh-7; assay: Induction of apoptosis in human Huh-7 cells assessed as chromatin condensation measured after 48 hrs by Hoechst33258 staining based inverted fluorescent microscopic method; assay type: functional, cell-based
[34] = test system: Huh-7; assay: Induction of apoptosis in human Huh-7 cells assessed as nuclear fragmentation measured after 48 hrs by Hoechst33258 staining based inverted fluorescent microscopic method; assay type: functional, cell-based
[35] = test system: HepG2; assay: Induction of apoptosis in human HepG2 cells assessed as apoptotic body formation measured after 48 hrs by Hoechst33258 staining based inverted fluorescent microscopic method; assay type: functional, cell-based
[36] = test system: HepG2; assay: Induction of apoptosis in human HepG2 cells assessed as chromatin condensation measured after 48 hrs by Hoechst33258 staining based inverted fluorescent microscopic method; assay type: functional, cell-based
[37] = test system: HepG2; assay: Induction of apoptosis in human HepG2 cells assessed as nuclear fragmentation measured after 48 hrs by Hoechst33258 staining based inverted fluorescent microscopic method; assay type: functional, cell-based
[38] = molecular target: Mitogen-activated protein kinase; ERK1/ERK2 (Homo sapiens) (UniProt P27361+P28482); assay: Downregulation of ERK1/2 phosphorylation at T202/Y204 residue in human Huh-7 cells at 5 uM measured after 72 hrs by Western blot analysis; assay type: cell-based
Mitogen-activated protein kinase; ERK1/ERK2 (Homo sapiens), sequence (P27361 whole entry, looked up): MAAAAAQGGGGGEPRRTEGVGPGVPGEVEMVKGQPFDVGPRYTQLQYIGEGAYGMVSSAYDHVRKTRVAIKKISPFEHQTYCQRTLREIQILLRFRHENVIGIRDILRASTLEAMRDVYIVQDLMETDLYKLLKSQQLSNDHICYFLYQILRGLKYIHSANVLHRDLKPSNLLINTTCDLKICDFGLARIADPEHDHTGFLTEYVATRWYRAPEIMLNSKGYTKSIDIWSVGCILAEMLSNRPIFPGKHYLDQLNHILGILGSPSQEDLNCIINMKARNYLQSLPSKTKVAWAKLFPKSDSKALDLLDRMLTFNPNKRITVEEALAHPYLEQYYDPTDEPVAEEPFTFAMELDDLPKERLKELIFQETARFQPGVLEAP
Mitogen-activated protein kinase; ERK1/ERK2 (Homo sapiens), sequence (P28482 whole entry, looked up): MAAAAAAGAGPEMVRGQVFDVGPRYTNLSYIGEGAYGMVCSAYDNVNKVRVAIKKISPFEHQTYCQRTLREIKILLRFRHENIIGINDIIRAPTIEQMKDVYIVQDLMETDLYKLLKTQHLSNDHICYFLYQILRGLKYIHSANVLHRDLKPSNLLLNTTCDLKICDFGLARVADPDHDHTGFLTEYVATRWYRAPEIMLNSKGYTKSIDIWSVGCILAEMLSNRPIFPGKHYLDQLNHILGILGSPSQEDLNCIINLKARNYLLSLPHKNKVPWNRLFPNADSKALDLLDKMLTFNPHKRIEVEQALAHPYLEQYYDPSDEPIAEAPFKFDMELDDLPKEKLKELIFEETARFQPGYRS

T1 sequence (P31749 whole entry, looked up): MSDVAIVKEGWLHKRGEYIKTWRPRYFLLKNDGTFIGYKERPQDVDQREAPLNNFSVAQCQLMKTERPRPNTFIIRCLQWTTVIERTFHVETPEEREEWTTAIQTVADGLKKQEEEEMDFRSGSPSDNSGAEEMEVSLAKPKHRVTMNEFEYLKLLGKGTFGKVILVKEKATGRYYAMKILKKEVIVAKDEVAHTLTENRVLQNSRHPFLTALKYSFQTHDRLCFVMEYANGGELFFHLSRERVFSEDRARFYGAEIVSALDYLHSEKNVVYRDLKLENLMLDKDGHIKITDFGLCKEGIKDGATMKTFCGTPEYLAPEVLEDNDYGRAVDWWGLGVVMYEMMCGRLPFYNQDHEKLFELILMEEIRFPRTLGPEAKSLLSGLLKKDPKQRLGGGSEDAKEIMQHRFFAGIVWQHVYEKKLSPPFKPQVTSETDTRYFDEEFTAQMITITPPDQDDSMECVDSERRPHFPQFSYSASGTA
T1 sequence (P31751 whole entry, looked up): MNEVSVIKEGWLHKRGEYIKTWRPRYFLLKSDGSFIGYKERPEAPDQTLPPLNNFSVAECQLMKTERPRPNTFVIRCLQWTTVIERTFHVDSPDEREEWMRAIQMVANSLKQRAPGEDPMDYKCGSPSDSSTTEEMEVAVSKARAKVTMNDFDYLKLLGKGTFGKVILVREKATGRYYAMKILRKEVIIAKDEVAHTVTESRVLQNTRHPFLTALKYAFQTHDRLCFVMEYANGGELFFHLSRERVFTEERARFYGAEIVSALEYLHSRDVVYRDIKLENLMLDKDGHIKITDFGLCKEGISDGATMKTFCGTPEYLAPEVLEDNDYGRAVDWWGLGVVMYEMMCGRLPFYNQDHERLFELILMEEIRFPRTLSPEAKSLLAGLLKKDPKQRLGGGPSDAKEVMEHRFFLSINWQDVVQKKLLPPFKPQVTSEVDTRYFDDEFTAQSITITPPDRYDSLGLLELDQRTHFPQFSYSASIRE
T1 sequence (Q9Y243 whole entry, looked up): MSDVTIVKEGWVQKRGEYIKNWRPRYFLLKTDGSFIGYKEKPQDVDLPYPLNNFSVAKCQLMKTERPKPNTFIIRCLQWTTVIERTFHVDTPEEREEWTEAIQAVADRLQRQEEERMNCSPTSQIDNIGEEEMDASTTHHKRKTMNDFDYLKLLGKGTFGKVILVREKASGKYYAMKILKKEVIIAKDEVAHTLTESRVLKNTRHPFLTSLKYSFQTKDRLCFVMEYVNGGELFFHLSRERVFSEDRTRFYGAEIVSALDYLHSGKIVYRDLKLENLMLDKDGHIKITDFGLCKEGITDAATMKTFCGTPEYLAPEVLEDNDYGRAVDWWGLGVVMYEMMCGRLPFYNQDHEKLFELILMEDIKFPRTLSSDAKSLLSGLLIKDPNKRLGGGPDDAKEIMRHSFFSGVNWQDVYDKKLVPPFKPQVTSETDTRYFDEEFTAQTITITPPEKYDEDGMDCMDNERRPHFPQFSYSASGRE

| IC50 [1] | Structure (SMILES) | IC50 [2] | Activity [3] | Activity [4] | Activity [5] | Activity [6] | Activity [7] | Activity [8] | Activity [9] | Activity [10] | Activity [11] | Activity [12] | Activity [13] | Activity [14] | Activity [15] | Activity [16] | Activity [17] | Activity [18] | Activity [19] | Activity [20] | other results |
| --- | --- | --- | --- | --- | --- | --- | --- | --- | --- | --- | --- | --- | --- | --- | --- | --- | --- | --- | --- | --- | --- |
| 380 nM | N#Cc1cccc(COc2ccc(-c3cc(CN4CCN(Cc5ccc(C(F)(F)F)cc5)CC4)no3)cc2F)c1 | 0.5 µM | Active | Active | Active | Dose-Dependent Effect | Dose-Dependent Effect | Active | Active | Active | Active | Active | Active | Active | Active | Active | Active | Active | Active | inactive | inhibition [21]: inactive; inhibition [22]: inactive; inhibition [23]: Active; Activity [24]: 13.12%; inhibition [25]: Active; inhibition [26]: Active; inhibition [27]: Active; inhibition [28]: Active; inhibition [29]: Active; inhibition [30]: Active; Activity [31]: Active; Activity [32]: Active; Activity [33]: Active; Activity [34]: Active; Activity [35]: Active; Activity [36]: Active; Activity [37]: Active; inhibition [38]: Active |
| 2900 nM | FC(F)(F)c1ccc(CN2CCN(Cc3cc(-c4ccc(OCc5ccccc5)cc4)on3)CC2)cc1 | 11.7 µM | Active | Active | Active | Dose-Dependent Effect | Dose-Dependent Effect | Active | Active | Active | Active | Active | Active | Active | Active | Active | Active | Active | Active | inactive | inhibition [21]: inactive; inhibition [22]: inactive; inhibition [23]: Active; Activity [24]: 23.68%; inhibition [25]: Active; inhibition [26]: Active; inhibition [27]: Active; inhibition [28]: Active; inhibition [29]: Active; inhibition [30]: Active; Activity [31]: Active; Activity [32]: Active; Activity [33]: Active; Activity [34]: Active; Activity [35]: Active; Activity [36]: Active; Activity [37]: Active; inhibition [38]: Active |
